Assay results: publication PMC3404986, “Pyridoxal 5′-Phosphate Is a Slow Tight Binding Inhibitor of E. coli Pyridoxal Kinase” (PLoS ONE, 2012)

Legend:
[1] = biological target: T1, ePL kinase (E. coli pyridoxal kinase 1, PL kinase1) (Escherichia coli, UniProt P40191); test: size-exclusion chromatography, then coupled enzymatic ADP assay of denatured complex; format: binding; settings: complex from PLP 0.5 mM + MgADP 1 mM + MgCl2 0.5 mM, pH 7.5, 37°C, 1 h; ternary complex with PLP
T1 construct: gene pdxK; full length, recombinant from E. coli; wild type untagged (as previously described); K229Q His-tagged (C-terminus; pET28a NdeI/EcoRI)
Text: size-exclusion chromatography, then coupled enzymatic ADP assay of denatured complex on ePL kinase (E. coli pyridoxal kinase 1, PL kinase1)

[2] = biological target: T1, ePL kinase (E. coli pyridoxal kinase 1, PL kinase1); test: Sephadex G-50 spin column, absorbance of bound PLP at […] nm; settings: PLP without nucleotide, 0.2 mM MgCl2, pH 7.5, 37°C; slow tight binding inhibitor; covalent, reversible aldimine, K229 suggested
[3] = biological target: T1, ePL kinase (E. coli pyridoxal kinase 1, PL kinase1); test: CD at […] nm, bound PLP removed by PLP phosphatase; format: binding; settings: complex formed from PL + MgATP; 10 µM PLP phosphatase as trap, pH 7.5, 37°C; covalent, reversible aldimine; only part of the PLP released

Row | Compound | %ADP [1] [%] | Rate of complex formation [2] [min⁻¹] | rate of dissociation [3] [min⁻¹]
1 | Nc1ncnc2c1ncn2[C@@H]1O[C@H](COP(=O)(O)OP(=O)(O)O)[C@@H](O)[C@H]1O [MgADP] | 43 |  | 
2 | Cc1ncc(COP(=O)(O)O)c(C=O)c1O [PLP] |  | 0.16 | 0.012
